Here are results for five compounds from patent publication US8785494B2, “Calcium sensing receptor modulating compounds and pharmaceutical use thereof” (LEO-Pharma A/S, priority 2009, dated 2014).

A short description of data set [1]: Clearance in rat hepatocytes. It counts as in vitro ADME. As to conditions: test compound 0.5 μM, 1×10^6 cells/mL, scaled to rat body weight. The method, then:
Test compound concentration is 0.5 μM and cell concentration is 1×10^6 cells/mL in the incubation. The described method is manual and is based on a 24-well format.
The liver is collected from a male Spraque-Dawley rat. One liver lobe is cut off and flushed with various buffers to loosen the cells. The cell suspension is washed and centrifuged, and the cell density is adjusted to 1.2×10^6 cells/mL with Krebs-Henseleit buffer, pH 7.4, containing 0.2% bovine serum albumin (BSA). Only cell suspensions with viability above 80% are used.
A volume of 315 μL cell suspension per well is added to 24-well plates and preincubated at 37° C. for 20 min. Test compound (0.5 μM) is added, and the mixture is incubated for 20 minutes. Incubations are run in duplicate. Samples are withdrawn at predetermined stop times and mixed with methanol containing internal standard (IS) to terminate all enzyme activity and precipitate proteins.
The percentage of organic solvent in the incubations is less than 1%. Careful inspections of reagents are performed prior to the start of any experiment to ensure all reagents are in solution.
The 24-well plates are centrifuged. Test compound depletion, using a compound specific LC/MS/MS method, is determined. The logarithm of the peak area ratios of test compound to internal standard (IS) versus incubation time is plotted in a graph
The rate constant (k) (min^−1) of test compound depletion is calculated from the linear part of the curve and the half-time (t1/2) in minutes can be calculated from the rate constant (Eq. 1). t1/2=(ln 2)/k (Eq. 1)
Intrinsic clearance (Clint) (mL/min/10^6 cells) is calculated from: Clint=k/c (Eq. 2) where c is the cell concentration in 10^6 cells/mL.
Conversion to apparent clearance (Clapp) (mL/min/kg) is done by Eq. 3: Clapp=Clint×a×b/d (Eq. 3) where a, b and d are the scaling factors for normalizing Clint to rat body weight.
The following rat scaling factors are used: • a: 120 (cells/liver weight (10^6 cells/g)) • b: 10 (liver weight (g)) • d: 0.25 (body weight (kg))
Apparent clearance is a measure of compound elimination from the liver. Apparent clearance below approximately 25 mL/min/kg rat body weight (corresponding to extraction ratio of approx. 30%) is considered as low clearance (high metabolic stability). Apparent clearance above approximately 165 mL/min/kg rat body weight (corresponding to extraction ratio of approx. 75%) is considered as high clearance (low metabolic stability).

The next data set deals with T1, human CaSR (Homo sapiens, UniProt P41180).
T1 construct: The ORF coding for the human CaSR (genebank: NM_000388) was acquired from Invitrogen Corp, USA
T1 sequence (P41180 20-1078): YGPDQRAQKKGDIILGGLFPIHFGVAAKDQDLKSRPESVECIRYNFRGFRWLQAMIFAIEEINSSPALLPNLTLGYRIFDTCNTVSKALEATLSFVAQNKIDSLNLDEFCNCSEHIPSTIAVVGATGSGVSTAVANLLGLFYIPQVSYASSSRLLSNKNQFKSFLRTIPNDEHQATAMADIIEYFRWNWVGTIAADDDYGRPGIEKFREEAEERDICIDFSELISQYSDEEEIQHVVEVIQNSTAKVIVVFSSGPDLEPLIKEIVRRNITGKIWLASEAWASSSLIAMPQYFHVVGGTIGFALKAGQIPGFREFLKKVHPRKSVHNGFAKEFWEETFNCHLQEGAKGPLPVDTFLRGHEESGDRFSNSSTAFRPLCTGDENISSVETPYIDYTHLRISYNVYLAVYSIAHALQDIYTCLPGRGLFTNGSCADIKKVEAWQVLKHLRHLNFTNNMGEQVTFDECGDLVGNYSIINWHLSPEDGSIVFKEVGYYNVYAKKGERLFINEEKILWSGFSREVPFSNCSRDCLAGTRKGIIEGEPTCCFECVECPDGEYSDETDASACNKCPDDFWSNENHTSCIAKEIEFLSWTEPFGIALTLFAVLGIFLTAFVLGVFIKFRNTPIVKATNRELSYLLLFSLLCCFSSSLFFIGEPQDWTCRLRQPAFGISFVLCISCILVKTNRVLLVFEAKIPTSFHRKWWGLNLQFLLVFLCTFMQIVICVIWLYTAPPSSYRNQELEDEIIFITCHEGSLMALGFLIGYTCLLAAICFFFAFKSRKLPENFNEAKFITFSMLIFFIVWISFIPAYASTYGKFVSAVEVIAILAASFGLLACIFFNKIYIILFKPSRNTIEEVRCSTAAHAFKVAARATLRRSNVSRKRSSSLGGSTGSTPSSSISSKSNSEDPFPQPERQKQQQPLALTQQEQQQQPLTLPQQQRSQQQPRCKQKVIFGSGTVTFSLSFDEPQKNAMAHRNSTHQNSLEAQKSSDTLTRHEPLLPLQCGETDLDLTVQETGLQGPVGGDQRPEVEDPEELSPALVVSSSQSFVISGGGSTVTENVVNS
Put plainly: Functional whole cell assay (IP1 accumulation, IP-One htrf) in CHO-K1 cells stably expressing human CaSR. As to conditions: 2 mM Ca2+, 1 hour at 37° C., IP1 readout, read-out: Functional whole cell assay (modulation of human CaSR). Type of data set: cell-based. The source says: The assay investigates a compound's functional ability to act as a biological positive modulator on the human CaSR. Activation of the receptor expressed on CHO-K1 cells is detected through the G alpha q pathway, the activation of phospholipase C and the accumulation of intracellular inositol phosphate (IP) as described earlier [Sandrine Ferry, Bruno Chatel, Robert H. Dodd, Christine Lair, Danielle Gully, Jean-Pierre Maffrand, and Martial Ruat. Effects of Divalent Cations and of a Calcimimetic on Adrenocorticotropic Hormone Release in Pituitary Tumor Cells. BIOCHEMICAL AND BIOPHYSICAL RESEARCH COMMUNICATIONS 238, 866-873 (1997)]. The human CaSR is stably expressed on a CHO-K1 cell clone, stimulated with a basal level of calcium and challenged with the tested compound. The level of IP1 is determined using the IP-One htrf kit (Cisbio, France). CHO-K1 cells not transfected with the CaSR fail to elicit an IP1 response upon calcium and/or compound stimulation.
The ORF coding for the human CaSR (genebank: NM_000388) was acquired from Invitrogen Corp, USA and subsequently cloned into the mammalian expression vector pCDA3.1.
CHO-K1 cells were transfected using Lipofectamine according to manufacturer's protocol (400.000 cells/well were seeded in a 6-well plate and transfected after 24 hours using 2 μg DNA and 5 μl lipofectamine). After another 24 hours the cells were detached, seeded and subjected to 1 mg/ml of G-418. Following 7 days growth single clones were picked, the CaSR expression evaluated using the 5C10 antibody against CaSR, the clones with the highest expression were selected and tested for functional response. The preferred clone was continuously cultured according to standard procedures described in ATCC (American Type Culture Collection) protocols for CHO-K1 with the addition of 500 μg/ml G-418.
On the assay day cells were harvested and resuspended to 13*10^6 cells/ml in stimulation buffer (containing: Hepes 10 mM, MgCl2 0.5 mM, KCl 4.2 mM, NaCl 146 mM, glucose 5.5 mM, LiCl 50 mM at pH 7.4). Five μl cell solution were pipetted into a well (white 384-well plate, Perkin Elmer Optiplate) followed by 5 μl compound diluted in a Ca^2+-containing (to the final concentration of 2 mM) buffer. After compound stimulation for 1 hour at 37° C. 10 μl of IP-One assay reagents were added and incubated for another 1 hour at room temperature. Finally the plate was read using a Perkin Elmer EnVision, according to protocol supplied by the IP-One assay kit manufacturer. The FRET ratio was calculated by dividing the 665 nm emission signal with that of the 615 nm.

For the compound `COc1cc([C@@H](C)NC2CC[C@H](c3ccc(OCC(=O)O)c(C(F)(F)F)c3)C2)ccc1F` (mixture of isomers) [Compound 1021, 2-[4-[(1S)-3-[[(1R)-1-(4-fluoro-3-methoxy-phenyl)ethyl]amino]cyclopentyl]-2-(trifluoromethyl)phenoxy]acetic acid], the “Clearance (Clapp) in rat hepatocytes” value in data set [1] is listed as “A (A: <30 mL/min/kg)”. Moreover, the EC50 on human CaSR was less than 500 nM.

In the case of `C[C@@H](NC1CCC(c2ccc(CCC(=O)O)c(C(F)(F)F)c2)C1)c1cccc2ccccc12` (single isomer, unassigned) [Compound 1007], the “Clearance (Clapp) in rat hepatocytes” value in data set [1] was “B (B: 30-55 mL/min/kg)”. Besides, the EC50 at human CaSR was less than 500 nM.

Turning to `COc1cc([C@@H](C)NC2CC[C@H](c3ccc(CCC(=O)O)c(C(F)(F)F)c3)C2)ccc1F` (single isomer, unassigned) [Compound 1012], the “Clearance (Clapp) in rat hepatocytes” value in data set [1] is “A (A: <30 mL/min/kg)”. The EC50 on human CaSR is less than 500 nM.

With `COc1cc([C@@H](C)NC2CC[C@@H](c3cc(OCC(=O)O)cc(C(F)(F)F)c3)C2)ccc1F` (single isomer, unassigned) [Compound 1022], the “Clearance (Clapp) in rat hepatocytes” value in data set [1] was “A (A: <30 mL/min/kg)”. The EC50 on human CaSR was less than 500 nM.

Turning to `C[C@@H](NC1CC[C@@H](c2cc(OCC(=O)O)cc(C(F)(F)F)c2)C1)c1cccc2ccccc12` (single isomer, unassigned) [Compound 1023], the “Clearance (Clapp) in rat hepatocytes” value in data set [1] is listed as “B (B: 30-55 mL/min/kg)”. Besides, on human CaSR, the EC50 is less than 500 nM.
